The text below walks through data of ChEMBL document CHEMBL1909046, “DrugMatrix in vitro pharmacology data”.

Test [1] is described as follows: DRUGMATRIX: Sodium/nucleoside co-transporter radioligand binding (ligand: nitrobenzylthioinosine). Type of test: cell membranes, Cavia porcellus, Dunkin-Hartley, Cerebral cortex, Membrane. To be noted: Not Active = under 50% inhibition at 10 µM.
A short description of test [2]: DRUGMATRIX: beta-Lactamase enzyme inhibition (substrate: Nitrocefin). Also noted: species or system Bacillus cereus. Conditions: Not Active = under 50% inhibition at 10 µM.
Test [3] in a line: DRUGMATRIX: Serotonin (5-Hydroxytryptamine) 5-HT3 radioligand binding (ligand: [3H] GR-65630). Conditions: hek293, Not Active = under 50% inhibition at 10 µM. Type of test: cell membranes, Membrane.
For test [4], the target named is T1, Endothelin-1 receptor (Homo sapiens, UniProt P25101). Also: in other assays of this panel Not Active means under 50% inhibition at 10 µM.
T1 sequence (P25101 whole entry): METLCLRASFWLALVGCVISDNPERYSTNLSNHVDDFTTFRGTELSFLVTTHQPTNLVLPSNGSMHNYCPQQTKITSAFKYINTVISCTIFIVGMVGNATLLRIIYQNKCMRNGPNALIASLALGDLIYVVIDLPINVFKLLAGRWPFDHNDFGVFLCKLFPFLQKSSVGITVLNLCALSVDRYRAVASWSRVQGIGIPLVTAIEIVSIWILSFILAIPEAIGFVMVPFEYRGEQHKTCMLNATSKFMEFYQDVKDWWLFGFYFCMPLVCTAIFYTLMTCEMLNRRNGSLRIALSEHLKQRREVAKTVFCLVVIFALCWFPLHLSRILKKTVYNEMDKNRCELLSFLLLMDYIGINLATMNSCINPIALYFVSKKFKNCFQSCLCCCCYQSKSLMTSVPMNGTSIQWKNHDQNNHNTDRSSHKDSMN
Type of test: cell membranes, CHO-K1, Membrane. To be noted: cho-k1.

Test [5] concerns the target T2, 3-hydroxy-3-methylglutaryl-coenzyme A reductase (Homo sapiens, UniProt P04035).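 Also: enzyme inhibition assay of HMG-CoA reductase using radiolabeled [14C]HMG-CoA as substrate; in other assays of this panel Not Active means under 50% inhibition at 10 µM.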
T2 sequence (P04035 whole entry): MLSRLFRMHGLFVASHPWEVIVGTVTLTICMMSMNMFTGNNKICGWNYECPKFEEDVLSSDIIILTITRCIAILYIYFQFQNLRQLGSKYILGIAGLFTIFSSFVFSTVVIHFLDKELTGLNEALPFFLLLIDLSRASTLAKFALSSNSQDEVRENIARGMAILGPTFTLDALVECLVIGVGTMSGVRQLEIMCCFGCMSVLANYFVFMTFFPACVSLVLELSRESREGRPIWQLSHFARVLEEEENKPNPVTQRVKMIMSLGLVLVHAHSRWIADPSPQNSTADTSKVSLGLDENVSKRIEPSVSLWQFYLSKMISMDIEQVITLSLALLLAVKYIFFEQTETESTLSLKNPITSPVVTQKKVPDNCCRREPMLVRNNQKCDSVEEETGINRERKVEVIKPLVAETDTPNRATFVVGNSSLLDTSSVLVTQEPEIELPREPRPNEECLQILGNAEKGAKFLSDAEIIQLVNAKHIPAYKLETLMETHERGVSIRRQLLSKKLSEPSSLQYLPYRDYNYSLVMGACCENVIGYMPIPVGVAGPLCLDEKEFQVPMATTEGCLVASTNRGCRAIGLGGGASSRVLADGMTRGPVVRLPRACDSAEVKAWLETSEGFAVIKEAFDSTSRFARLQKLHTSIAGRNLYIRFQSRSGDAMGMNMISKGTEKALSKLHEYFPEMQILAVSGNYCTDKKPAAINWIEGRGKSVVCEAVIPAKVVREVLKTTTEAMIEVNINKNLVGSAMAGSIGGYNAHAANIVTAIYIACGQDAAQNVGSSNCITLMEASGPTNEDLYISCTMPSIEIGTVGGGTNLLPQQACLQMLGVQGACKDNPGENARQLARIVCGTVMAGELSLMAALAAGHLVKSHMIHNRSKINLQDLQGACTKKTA
Also noted: species or system Escherichia coli.

Test [6] in a line: DRUGMATRIX: Nicotinic Acetylcholine radioligand binding (ligand: [125I] Epibatidine). Type of test: cell membranes, Membrane. To be noted: imr-32; Not Active = under 50% inhibition at 10 µM.
The target in test [7] is Matrix metalloproteinase-9 (Homo sapiens, UniProt P14780). In words: biochemical. The format is cell-based.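 Also: inhibition of isolated MMP-9 enzyme activity toward a synthetic peptide substrate, from the DrugMatrix protease screening panel; in other assays of this panel Not Active means under 50% inhibition at 10 µM.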
The target of test [8] is Adenosine receptor A2a (Homo sapiens, UniProt P29274). In words: DRUGMATRIX: Adenosine A2A radioligand binding (ligand: […]). The format is cell membranes, Membrane. To be noted: hek293; Not Active = under 50% inhibition at 10 µM.

*1 amine or outer side, *2 acyl side, *3 side chain or, on linkers, in order; H or OH if unused. Where a SMILES comes first, the peptide text is derived from it. Bridges are numbered along the chain shown (N, C = ends). Roman numbers before positions name the chains, in order. [ ]: non-standard residue; d: D form. Actinocin(1to9) = Cc1c2oc3c(C)ccc(C(=O)[*:2])c3nc-2c(C(=O)[*:1])c(N)c1=O; NMeV = CN[C@H](C(=O)O)C(C)C; Sar = CNCC(=O)O

Chain of Matrix metalloproteinase-9 (P14780 whole entry): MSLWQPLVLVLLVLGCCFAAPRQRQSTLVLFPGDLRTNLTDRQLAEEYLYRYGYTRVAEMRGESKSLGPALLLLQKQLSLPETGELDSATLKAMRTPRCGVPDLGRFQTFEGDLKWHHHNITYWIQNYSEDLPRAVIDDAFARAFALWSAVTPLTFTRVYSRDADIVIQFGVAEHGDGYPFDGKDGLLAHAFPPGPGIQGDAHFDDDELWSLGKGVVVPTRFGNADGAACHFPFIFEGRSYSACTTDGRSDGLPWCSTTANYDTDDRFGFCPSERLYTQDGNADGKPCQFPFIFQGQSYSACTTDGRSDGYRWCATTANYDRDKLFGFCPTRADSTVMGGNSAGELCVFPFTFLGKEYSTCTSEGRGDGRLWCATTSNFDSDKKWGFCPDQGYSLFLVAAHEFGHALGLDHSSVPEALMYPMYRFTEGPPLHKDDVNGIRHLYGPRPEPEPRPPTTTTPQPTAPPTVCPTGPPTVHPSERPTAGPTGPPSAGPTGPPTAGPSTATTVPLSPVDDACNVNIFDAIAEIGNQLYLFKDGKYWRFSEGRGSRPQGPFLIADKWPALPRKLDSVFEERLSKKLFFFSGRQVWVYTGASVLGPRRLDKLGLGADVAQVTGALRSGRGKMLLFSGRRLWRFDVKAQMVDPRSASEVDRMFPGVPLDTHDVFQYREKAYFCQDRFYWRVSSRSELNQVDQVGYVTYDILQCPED
Chain of Adenosine receptor A2a (P29274 whole entry): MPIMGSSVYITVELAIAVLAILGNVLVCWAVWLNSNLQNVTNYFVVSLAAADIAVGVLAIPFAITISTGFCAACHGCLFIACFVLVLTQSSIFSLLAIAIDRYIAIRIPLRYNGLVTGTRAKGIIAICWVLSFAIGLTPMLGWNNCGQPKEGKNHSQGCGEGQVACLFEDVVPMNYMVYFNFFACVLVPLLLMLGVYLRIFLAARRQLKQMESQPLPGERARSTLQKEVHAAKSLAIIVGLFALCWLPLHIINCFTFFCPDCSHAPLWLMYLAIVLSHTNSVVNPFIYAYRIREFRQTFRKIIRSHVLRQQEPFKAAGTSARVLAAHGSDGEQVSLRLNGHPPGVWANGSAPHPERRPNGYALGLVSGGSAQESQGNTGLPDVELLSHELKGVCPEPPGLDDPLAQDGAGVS

Consider `COc1ccc(C[C@H]2NC[C@H](O)[C@H]2OC(C)=O)cc1` [ANISOMYCIN], for which the IC50 entry in test [1], in test [2], in test [3], in test [4], in test [5] and in test [6] was “Not Active” in each case. For the same compound, the IC50 result in test [7] and in test [8] was “Not Active” throughout. Further, the inhibition constant Ki result in test [1], in test [2], in test [3], in test [4], in test [5] and in test [6] was “Not Active” in each case. The Ki entry in test [7] and in test [8] was “Not Active” each time.
On to `CNNCc1ccc(C(=O)NC(C)C)cc1` [PROCARBAZINE], for which the IC50 result in test [1], in test [2], in test [3], in test [4], in test [5] and in test [6] was “Not Active” in each case. Besides, the IC50 entry in test [7] and in test [8] was “Not Active” in each case. In addition, the Ki result in test [1], in test [2], in test [3] and in test [6] was “Not Active” in each case.
Regarding `Cc1onc(O)c1CC(N)C(=O)O` (racemic) [(R,S)-AMPA], the IC50 entry in test [1], in test [2], in test [3], in test [4], in test [5] and in test [6] was “Not Active” each time. In addition, the IC50 entry in test [7] and in test [8] was “Not Active” throughout. Further, the Ki entry in test [1], in test [2], in test [3] and in test [6] was “Not Active” in each case.
For `Cc1c(O)c(=O)ccn1C` [DEFERIPRONE], the IC50 entry in test [1], in test [2], in test [3], in test [4], in test [5] and in test [6] was “Not Active” each time. Besides, the 50% inhibitory concentration (IC50) result in test [7] and in test [8] was “Not Active” throughout. Also, the inhibition constant (Ki) result in test [1], in test [2], in test [3] and in test [6] was “Not Active” throughout.
On to `Nc1ncn([C@@H]2O[C@H](CO)[C@@H](O)[C@H]2O)c(=O)n1` [AZACITIDINE], for which the IC50 result in test [1], in test [2], in test [3], in test [4], in test [5] and in test [6] was “Not Active” in each case. Further, the IC50 result in test [7] and in test [8] was “Not Active” in each case. The inhibition constant (Ki) entry in test [1], in test [2], in test [3] and in test [6] was “Not Active” throughout.
On to `CCn1cc(C(=O)O)c(=O)c2cc(F)c(N3CCNCC3)cc21` [NORFLOXACIN], for which the IC50 entry in test [1], in test [2], in test [3], in test [4], in test [5] and in test [6] was “Not Active” each time. Also, the 50% inhibitory concentration (IC50) entry in test [7] and in test [8] was “Not Active” each time. Moreover, the inhibition constant (Ki) entry in test [1], in test [2], in test [3] and in test [6] was “Not Active” each time.
Regarding `CN(C)CCCN1c2ccccc2Sc2ccc(Cl)cc21` [CHLORPROMAZINE], the IC50 – broadly, the concentration needed to halve the response being measured – is “Not Active” in test [1]; “Not Active” in test [2]; 7.37 µM in test [3] (read-out: IC50); “Not Active” in test [4]; “Not Active” in test [5]; “Not Active” in test [6]. The IC50 entry in test [7] and in test [8] was “Not Active” throughout. The Ki (in general, a measure of affinity in units of concentration, obtained from inhibition or displacement) in test [1] was “Not Active”; in test [2], “Not Active”; in test [3] (read-out: Ki) it was 1.66 µM; in test [6], “Not Active”.
Take `CCOC(=O)C1=C(COCCN)NC(C)=C(C(=O)OC)C1c1ccccc1Cl` (centres undefined) [AMLODIPINE]: the IC50 result in test [1], in test [2], in test [3], in test [4], in test [5] and in test [6] was “Not Active” throughout. Moreover, the IC50 entry in test [7] and in test [8] was “Not Active” each time. Besides, the Ki result in test [1], in test [2], in test [3] and in test [6] was “Not Active” in each case.
On to `CC1Cc2ccccc2N1NC(=O)c1ccc(Cl)c(S(N)(=O)=O)c1` (centres undefined) [INDAPAMIDE], for which the half-inhibitory concentration (IC50) result in test [1], in test [2], in test [3], in test [4], in test [5] and in test [6] was “Not Active” each time. For the same compound, the IC50 entry in test [7] and in test [8] was “Not Active” in each case. The Ki entry in test [1], in test [2], in test [3] and in test [6] was “Not Active” each time.
Regarding LEAD (II) ACETATE, the IC50 result in test [1], in test [2], in test [3], in test [4], in test [5] and in test [6] was “Not Active” throughout. Also, the IC50 entry in test [7] and in test [8] was “Not Active” each time. In addition, the Ki entry in test [1], in test [2], in test [3], in test [4], in test [5] and in test [6] was “Not Active” in each case. Further, the Ki entry in test [7] and in test [8] was “Not Active” throughout.
On to `Cc1c2oc3c(C)ccc(C(=O)N[C@@H]4C(=O)N[C@H](C(C)C)C(=O)N5CCC[C@H]5C(=O)N(C)CC(=O)N(C)[C@@H](C(C)C)C(=O)O[C@@H]4C)c3nc-2c(C(=O)N[C@@H]2C(=O)N[C@H](C(C)C)C(=O)N3CCC[C@H]3C(=O)N(C)CC(=O)N(C)[C@@H](C(C)C)C(=O)O[C@@H]2C)c(N)c1=O` [DACTINOMYCIN] (I: T[dV]P[Sar][NMeV] / II: T[dV]P[Sar][NMeV]; ester I:1-I:C, II:1-II:C; linker I:N-II:N via Actinocin(1to9)), for which the IC50 result in test [1], in test [2], in test [3], in test [4], in test [5] and in test [6] was “Not Active” throughout. Also, the IC50 result in test [7] and in test [8] was “Not Active” in each case. The Ki entry in test [1], in test [2], in test [3] and in test [6] was “Not Active” throughout.
Consider `NCCCCCC(=O)O` [AMINOCAPROIC ACID], for which the IC50 result in test [1], in test [2], in test [3], in test [4], in test [5] and in test [6] was “Not Active” in each case. Further, the IC50 entry in test [7] and in test [8] was “Not Active” throughout. Moreover, the Ki entry in test [1], in test [2], in test [3] and in test [6] was “Not Active” throughout.
In the case of `c1ccc(Nc2ccc(Nc3ccccc3)cc2)cc1`, the IC50 entry in test [1], in test [2], in test [3], in test [4], in test [5] and in test [6] was “Not Active” each time. For the same compound, the IC50 entry in test [7] and in test [8] was “Not Active” throughout. The Ki entry in test [1], in test [2], in test [3] and in test [6] was “Not Active” throughout.
